{
  "source": "paper PMC6627331",
  "about": "“Identification of Small Molecule Inhibitors of Staphylococcus aureus RnpA” (Antibiotics, 2019)",
  "key": {"S. aureus UAMS-1 [1]": {"system": "S. aureus UAMS-1", "experiment": "Minimum inhibitory concentration (MIC) testing", "assay_type": "cell-based, Staphylococcus aureus", "protocol": "Minimum inhibitory concentration (MIC) testing was performed using to Clinical & Laboratory Standards Institute (CLSI) guidelines. Accordingly, individual wells of a 96-well microtiter plate were inoculated with 10^4 colony forming units (CFU) of S. aureus UAMS-1 containing two-fold increasing concentrations (0 to 256 μg·mL^−1) of the indicated antibiotic or putative RnpA inhibitor compound, and incubated at 37 °C for 16 h in MHB. The MIC was defined as the lowest concentration of compound in which there was no visible bacterial growth in the well."}, "HepG2 cells": {"system": "HepG2 cells", "experiment": "MTT human cell cytotoxicity testing", "assay_type": "cell-based", "conditions": "SAR figures; 4× MIC exposure for 24 h", "protocol": "Human HepG2 hepatocytes were seeded in individual wells of a 96-well cell-culture treated microtiter plate at a concentration of 1 × 10^5 cells per well and incubated in Dulbecco’s Modified Eagle Medium (DMEM) supplemented with 10% fetal bovine serum at 37 °C with 5% carbon dioxide overnight. Cells were then treated with DMSO (negative control) or the indicated agent for 24 h. MTT Cell Proliferation Assay Kits were used to assess viability according to the manufacturer’s recommendations (American Type Culture Collection; Manassas, VA, USA)."}, "S. aureus UAMS-1 [2]": {"system": "S. aureus UAMS-1", "experiment": "Fractional inhibitory concentration (FIC) testing", "assay_type": "cell-based, Staphylococcus aureus", "conditions": "checkerboard, 16 h", "protocol": "Fractional inhibitory concentration (FIC) testing was performed to determine the combined effects of the indicated antibiotic and the putative RnpA inhibitor following the procedures of Odds and colleagues. To do so, individual wells of a 96-well microtiter plate were inoculated with 10^4 colony forming units (CFU) of S. aureus UAMS-1 in MHB. Each row of the plate contained two-fold increasing concentrations of the indicated antibiotic (0, 0.03, 0.06, 0.125, 0.25, 0.5, 1, 2, or 4× MIC), whereas each column contained increasing concentrations of the putative RnpA inhibitor compound (0, 0.03, 0.06, 0.125, 0.25, 0.5, 1, 2, or 4× MIC). Plates were incubated at 37 °C for 16 h and growth was determined by the unaided eye. The FIC was defined using the following formula: FIC = (MIC of Drug A in Combination/MIC of Drug A Alone) + (MIC of Drug B in Combination/MIC of Drug B Alone). A synergistic interaction was defined as an FIC value ≤ 0.5, an additive interaction as 0.5 < FIC < 1, no interaction as 1 ≤ FIC < 4, and an antagonistic interaction as FIC ≥ 4."}, "S. aureus BAA-1708": {"system": "S. aureus BAA-1708", "experiment": "MIC against clinical strain BAA-1708", "assay_type": "cell-based, Staphylococcus aureus", "conditions": "S. aureus clinical strain BAA-1708"}, "E. coli": {"system": "E. coli", "experiment": "Antimicrobial activity toward E. coli", "assay_type": "cell-based, Escherichia coli"}, "[3]": {"system": "S. aureus strain UAMS-1, USA300 or BAA-1708", "experiment": "Selection of spontaneous resistant cells in liquid culture", "assay_type": "cell-based, Staphylococcus aureus", "conditions": "24 h incubation in liquid culture, 2× MIC"}, "S. aureus UAMS-1 [4]": {"system": "S. aureus UAMS-1", "experiment": "Galleria mellonella model of S. aureus infection", "assay_type": "in vivo", "conditions": "10^4 CFU UAMS-1, single dose 100 mg·kg^−1 1 h post-infection, 16 h; DMSO 60%", "protocol": "(§1) An overnight culture of S. aureus strain UAMS-1 was used to inoculate (1:100 dilution) 25 mL of fresh MH medium and growth at 37 °C on a rotary shaker at 225 rpm to exponential phase (~1 × 10^8 CFU mL^−1). Cultures were pelleted by centrifugation, washed with phosphate buffered saline (PBS), and re-suspended at ~1 × 10^7 CFU·mL^−1 in fresh PBS. G. mellonella larvae weighing 150–250 mg were inoculated with 5 µL of S. aureus into the last left proleg using a 10 µL Hamilton syringe. About 1 h after inoculation, one group of worms was treated with 2 µL DMSO as infected negative control; one group was treated with 2 µL JC2 compound at 100 mg/kg dose; another group was treated with 2 µL vancomycin at 100 mg/kg dose as standard-of-care comparison. Treatments were administered in the same manner as infection, except that each injection was in the next left proleg moving towards the head of the worm. […] In addition to the mock or compound treatment of infected larvae, a group of non-infected worm injected with DMSO or corresponding compounds were used to monitor the impact of physical trauma as well as observe toxicity associated with compound treatment."}, "Galleria mellonella": {"system": "Galleria mellonella", "experiment": "Galleria mellonella single tolerated dose (uninfected worms)", "assay_type": "in vivo", "conditions": "single dose 100 mg·kg^−1, 16 h", "protocol": "as §1"}, "[5]": {"experiment": "JC2 stability (degradation test) in Mueller Hinton broth by HPLC", "assay_type": "physicochemical", "conditions": "37 °C, read-out: half-life in Mueller Hinton media (MH t1/2) (converted)", "protocol": "Degradation test: Blank sample was prepared with 20 µL Mueller Hinton broth (BD biosciences, US) diluted in 180 µL of 2 % DMSO in 1:1 (v/v) acetonitrile : water solution, and directly submitted to HPLC for evaluation. A 5 mM JC2 stock solution was prepared by diluting the 25 mM stock solution with DMSO. 4 µL of 5 mM […] solution was added into 196 µL of MH, and incubated at 37 °C for the whole course of evaluation. 20 µL of each incubated sample was taken at 0, 0.5, 1, 2, 4, 8, 16 hr, and were prepared in the same manner as the blank sample before submitting to HPLC.\nChromatography was performed on an Agilent 1200 series HPLC system that equipped with a vacuum degasser, a quaternary pump, a diode array and multiple wavelength detector SL, and a standard and preparative autosampler (Agilent Technologies, US). A Hyspersil GOLD^TM C-18 4.6 x 250 mm, 3 µm column was used for separation. A gradient elution method was used as the mobile phase by mixing solvent A (water, 0.1% formic Acid) and solvent B (acetonitrile, 0.1% formic acid). The time program for gradient elution is shown in Table A. The flow rate was set at 1.0 ml/min, and 20µl of sample was injected each time. The detector monitored absorption at 254, 215, 280 nm.\nChemstation Offline (Agilent Technologies, US) was used to analyze the data. […]"}},
  "note": "Read-outs that look alike come from different tables or passages of the source.",
  "data": [
    {"smiles": "CC1CCCCN1C(=O)Nc1cc(Cl)cc(Cl)c1", "note": "(stereo not drawn) [JC2]", "values": [
      {"measurement": "MIC", "setting": "S. aureus UAMS-1 [1]; S. aureus UAMS-1, 16 h in MHB, listed as 9049625", "result": 1, "unit": "µg/mL"},
      {"measurement": "MIC", "setting": "S. aureus UAMS-1 [1]; Staphylococcus aureus, UAMS1, 16 h, Table S1, mupirocin synergy screening initial hits, read-out: MIC", "result": 1, "unit": "µg/mL"},
      {"measurement": "MIC", "setting": "S. aureus UAMS-1 [1]; Staphylococcus aureus, UAMS1, SAR figures, S. aureus UAMS-1, read-out: MIC", "result": 0.5, "unit": "µg/mL"},
      {"measurement": "MTT = % HepG2 cell survival", "setting": "HepG2 cells", "result": 87, "unit": "%"},
      {"measurement": "FIC in combination with ampicillin", "setting": "S. aureus UAMS-1 [2]", "result": 2},
      {"measurement": "FIC in combination with erythromycin", "setting": "S. aureus UAMS-1 [2]", "result": 2},
      {"measurement": "FIC in combination with mupirocin", "setting": "S. aureus UAMS-1 [2]", "result": 0.875},
      {"measurement": "FIC in combination with trimethoprim", "setting": "S. aureus UAMS-1 [2]", "result": 2},
      {"measurement": "MIC", "setting": "S. aureus BAA-1708", "result": 1, "unit": "µg/mL"},
      {"measurement": "MIC", "setting": "S. aureus BAA-1708; Staphylococcus aureus, BAA1708, read-out: MIC", "result": 1, "unit": "µg/mL"},
      {"measurement": "antimicrobial activity toward E. coli", "setting": "E. coli", "result": "did not shown antimicrobial activity"},
      {"measurement": "selection of spontaneous resistant cells", "setting": "[3]", "result": "unable to select for spontaneous JC2 resistant"},
      {"measurement": "mortality rate of S. aureus infected worms", "setting": "S. aureus UAMS-1 [4]", "result": 30, "unit": "%"},
      {"measurement": "mortality rate of uninfected worms", "setting": "Galleria mellonella", "result": "did not display any treatment-associated lethality"},
      {"measurement": "half-life at 100 µM", "setting": "[5]", "result": "~2", "unit": "h"}
    ]}
  ]
}
